In brackets after ≈: the same amount, converted by molar mass. Read-outs that look alike come from different tables or passages of the source.

This passage reports MIC and oral absorption results from patent US5302705A, “6-O-methylerythromycin A oxime derivatives” (Taisho Pharmaceutical Co., Ltd., priority 1989, dated 1994).

The subject of one data set is S. aureus B1. Put plainly: In vitro antibacterial activity (MIC), agar dilution technique. Type of data set: cell-based. The following applies: Staphylococcus aureus. The method, then: (§1) The in vitro antibacterial activity of the compounds of the present invention against various test bacteria was measured by an agar dilution technique using sensitivity test agar (Eiken) as a test medium according to the MIC method specified by the Japan Chemotherapeutic Society.
(§2) The results are represented by the MIC value (minimum inhibitory concentration to microorganisms, mcg/ml), and shown in Table 1.
In general terms: Agar dilution tests growth on a series of plates holding different concentrations.

A further data set has as its system S. aureus J-109. Described as above. Type of data set: cell-based. The note with it: Staphylococcus aureus. The method, then: as §1, §2
The conditions of data set [1]: in vivo; cited from earlier work.
[2] abbreviates: S. aureus B1, agar dilution, sensitivity test agar (Eiken), read-out: MIC value.
[3] abbreviates: J109, S. aureus J-109, agar dilution, sensitivity test agar (Eiken), read-out: MIC value.

Regarding `CC[C@H]1OC(=O)[C@H](C)[C@@H](O[C@H]2C[C@@](C)(OC)[C@@H](O)[C@H](C)O2)[C@H](C)[C@@H](O[C@@H]2O[C@H](C)C[C@H](N(C)C)[C@H]2O)[C@](C)(OC)C[C@@H](C)C(=NOCc2c3ccccc3cc3ccccc23)[C@H](C)[C@@H](O)[C@]1(C)O` [A], the MIC in the data set on S. aureus B1 (setting [2]) and with S. aureus J-109 (setting [3]) was 6.25 µg/mL (≈ 6.56 µM) throughout.

In the case of `CC[C@H]1OC(=O)[C@H](C)[C@@H](O[C@H]2C[C@@](C)(OC)[C@@H](O)[C@H](C)O2)[C@H](C)[C@@H](O[C@@H]2O[C@H](C)C[C@H](N(C)C)[C@H]2O)[C@](C)(OC)C[C@@H](C)C(=NOCc2ccc(C(C)(C)C)cc2)[C@H](C)[C@@H](O)[C@]1(C)O` [B], the MIC in the data set on S. aureus B1 (setting [2]) and in the data set on S. aureus J-109 (setting [3]) was 6.25 µg/mL (≈ 6.87 µM) each time.

Turning to `CC[C@H]1OC(=O)[C@H](C)[C@@H](O[C@H]2C[C@@](C)(OC)[C@@H](O)[C@H](C)O2)[C@H](C)[C@@H](O[C@@H]2O[C@H](C)C[C@H](N(C)C)[C@H]2O)[C@](C)(OC)C[C@@H](C)C(=NOCc2c(C)cc(C)cc2C)[C@H](C)[C@@H](O)[C@]1(C)O` [Compound No. 1, 6-0-methylerythromycin A 9-[0-(2,4,6-trimethylbenzyl)oxime]], the MIC in the data set on S. aureus B1 (setting [2]) and in the data set on S. aureus J-109 (setting [3]) was 6.25 µg/mL (≈ 6.98 µM) each time.

In the case of `CC[C@H]1OC(=O)[C@H](C)[C@@H](O[C@H]2C[C@@](C)(OC)[C@@H](O)[C@H](C)O2)[C@H](C)[C@@H](O[C@@H]2O[C@H](C)C[C@H](N(C)C)[C@H]2O)[C@](C)(OC)C[C@@H](C)C(=NOCc2c(F)cccc2F)[C@H](C)[C@@H](O)[C@]1(C)O` [Compound No. 8], the minimal inhibitory concentration (MIC) in the data set on S. aureus B1 (setting [2]) and in the data set on S. aureus J-109 (setting [3]) was 12.5 µg/mL (≈ 14.1 µM) throughout.

With `CC[C@H]1OC(=O)[C@H](C)[C@@H](O[C@H]2C[C@@](C)(OC)[C@@H](O)[C@H](C)O2)[C@H](C)[C@@H](O[C@@H]2O[C@H](C)C[C@H](N(C)C)[C@H]2O)[C@](C)(OC)C[C@@H](C)C(=NOCC2CC3CCC2C3)[C@H](C)[C@@H](O)[C@]1(C)O` (stereo partly shown) [Compound No. 45], the MIC in the data set with S. aureus B1 (setting [2]) and with S. aureus J-109 (setting [3]) was 12.5 µg/mL (≈ 14.3 µM) in each case.

For the molecule `CC[C@H]1OC(=O)[C@H](C)[C@@H](O[C@H]2C[C@@](C)(OC)[C@@H](O)[C@H](C)O2)[C@H](C)[C@@H](O[C@@H]2O[C@H](C)C[C@H](N(C)C)[C@H]2O)[C@](C)(OC)C[C@@H](C)C(=NOCc2ccc(C(C)C)cc2)[C@H](C)[C@@H](O)[C@]1(C)O` [Compound No. 55], the minimum inhibitory concentration (MIC) in the data set with S. aureus B1 (setting [2]) and in the data set on S. aureus J-109 (setting [3]) was 12.5 µg/mL (≈ 14 µM) in each case.

As to `CC[C@H]1OC(=O)[C@H](C)[C@@H](O[C@H]2C[C@@](C)(OC)[C@@H](O)[C@H](C)O2)[C@H](C)[C@@H](O[C@@H]2O[C@H](C)C[C@H](N(C)C)[C@H]2O)[C@](C)(OC)C[C@@H](C)C(=NOCCCCc2ccccc2)[C@H](C)[C@@H](O)[C@]1(C)O` [Compound No. 56], the MIC with S. aureus B1 (setting [2]) and with S. aureus J-109 (setting [3]) was 25 µg/mL (≈ 27.9 µM) each time.

Consider `CC[C@H]1OC(=O)[C@H](C)[C@@H](O[C@H]2C[C@@](C)(OC)[C@@H](O)[C@H](C)O2)[C@H](C)[C@@H](O[C@@H]2O[C@H](C)C[C@H](N(C)C)[C@H]2O)[C@](C)(OC)C[C@@H](C)C(=NOC(C)c2ccccc2)[C@H](C)[C@@H](O)[C@]1(C)O` (stereo partly shown) [D], for which the minimal inhibitory concentration (MIC) with S. aureus B1 (setting [2]) and in the data set with S. aureus J-109 (setting [3]) was 12.5 µg/mL (≈ 14.4 µM) each time.

With `CC[C@H]1OC(=O)[C@H](C)[C@@H](O[C@H]2C[C@@](C)(OC)[C@@H](O)[C@H](C)O2)[C@H](C)[C@@H](O[C@@H]2O[C@H](C)C[C@H](N(C)C)[C@H]2O)[C@](C)(O)C[C@@H](C)C(=O)[C@H](C)[C@@H](O)[C@]1(C)O` [Erythromycin A], the oral absorption entry in data set [1] is “low and inconsistent”.

Consider `CC[C@H]1OC(=O)[C@H](C)[C@@H](O[C@H]2C[C@@](C)(OC)[C@@H](O)[C@H](C)O2)[C@H](C)[C@@H](O[C@@H]2O[C@H](C)C[C@H](N(C)C)[C@H]2O)[C@](C)(O)C[C@@H](C)C(=O)[C@H](C)[C@@H](O)[C@]1(C)O` [a], for which the MIC was over 100 µg/mL with S. aureus B1 (B1, read-out: MIC value) and over 100 µg/mL in the data set on S. aureus J-109 (J109, read-out: MIC value).

For `CC[C@H]1OC(=O)[C@H](C)[C@@H](O[C@H]2C[C@@](C)(OC)[C@@H](O)[C@H](C)O2)[C@H](C)[C@@H](O[C@@H]2O[C@H](C)C[C@H](N(C)C)[C@H]2O)[C@](C)(OC)C[C@@H](C)C(=O)[C@H](C)[C@@H](O)[C@]1(C)O` [b], the minimum inhibitory concentration (MIC) in the data set with S. aureus B1 (setting [2]) and in the data set on S. aureus J-109 (setting [3]) was over 100 µg/mL in each case.

`CC[C@H]1OC(=O)[C@H](C)[C@@H](O[C@H]2C[C@@](C)(OC)[C@@H](O)[C@H](C)O2)[C@H](C)[C@@H](O[C@@H]2O[C@H](C)C[C@H](N(C)C)[C@H]2O)[C@](C)(O)C[C@@H](C)/C(=N\OCOCCOC)[C@H](C)[C@@H](O)[C@]1(C)O` [c]: the MIC with S. aureus B1 (setting [2]) and with S. aureus J-109 (setting [3]) was over 100 µg/mL throughout.

On to `CC[C@H]1OC(=O)[C@H](C)[C@@H](O[C@H]2C[C@@](C)(OC)[C@@H](O)[C@H](C)O2)[C@H](C)[C@@H](O[C@@H]2O[C@H](C)C[C@H](N(C)C)[C@H]2O)[C@](C)(OC)C[C@@H](C)C(=NOC)[C@H](C)[C@@H](O)[C@]1(C)O` [d], for which the MIC in the data set with S. aureus B1 (setting [2]) and with S. aureus J-109 (setting [3]) was over 100 µg/mL in each case.

As usually defined, the MIC is the smallest concentration in the dilution series that meets the test's criterion for growth inhibition.
